BigSolDB 2.1

C=C1C[C@]23C[C@H]1CC[C@H]2[C@@]12CC[C@H](O)[C@@](C)(C(=O)O1)[C@H]2[C@@H]3C(=O)O
solubility (mole fraction) (in acetone, 278.15 K): 0.053
solubility (mole fraction) (in acetone, 283.15 K): 0.057
solubility (mole fraction) (in acetone, 288.15 K): 0.0596
solubility (mole fraction) (in acetone, 293.15 K): 0.0645
solubility (mole fraction) (in acetone, 298.15 K): 0.0692
solubility (mole fraction) (in acetone, 303.15 K): 0.0759
solubility (mole fraction) (in acetone, 308.15 K): 0.0801
solubility (mole fraction) (in acetone, 313.15 K): 0.0862
solubility (mole fraction) (in acetone, 318.15 K): 0.0917
solubility (mole fraction) (in acetone, 323.15 K): 0.0983
solubility (mole fraction) (in acetone, 328.15 K): 0.106
solubility (mole fraction) (in acetone, 333.15 K): 0.112
solubility (mole fraction) (in acetonitrile, 278.15 K): 0.00391
solubility (mole fraction) (in acetonitrile, 283.15 K): 0.00457
solubility (mole fraction) (in acetonitrile, 288.15 K): 0.00529
solubility (mole fraction) (in acetonitrile, 293.15 K): 0.00647
solubility (mole fraction) (in acetonitrile, 298.15 K): 0.00776
solubility (mole fraction) (in acetonitrile, 303.15 K): 0.00907
solubility (mole fraction) (in acetonitrile, 308.15 K): 0.0108
solubility (mole fraction) (in acetonitrile, 313.15 K): 0.0124
solubility (mole fraction) (in acetonitrile, 318.15 K): 0.0135
solubility (mole fraction) (in acetonitrile, 323.15 K): 0.0149
solubility (mole fraction) (in acetonitrile, 328.15 K): 0.0168
solubility (mole fraction) (in acetonitrile, 333.15 K): 0.0188
solubility (mole fraction) (in ethanol, 278.15 K): 0.000809
solubility (mole fraction) (in ethanol, 283.15 K): 0.000911
solubility (mole fraction) (in ethanol, 288.15 K): 0.00107
solubility (mole fraction) (in ethanol, 293.15 K): 0.00118
solubility (mole fraction) (in ethanol, 298.15 K): 0.00133
solubility (mole fraction) (in ethanol, 303.15 K): 0.00159
solubility (mole fraction) (in ethanol, 308.15 K): 0.00187
solubility (mole fraction) (in ethanol, 313.15 K): 0.00217
solubility (mole fraction) (in ethanol, 318.15 K): 0.00257
solubility (mole fraction) (in ethanol, 323.15 K): 0.00273
solubility (mole fraction) (in ethanol, 328.15 K): 0.00318
solubility (mole fraction) (in ethanol, 333.15 K): 0.00387
solubility (mole fraction) (in ethyl acetate, 278.15 K): 0.0105
solubility (mole fraction) (in ethyl acetate, 283.15 K): 0.0118
solubility (mole fraction) (in ethyl acetate, 288.15 K): 0.0134
solubility (mole fraction) (in ethyl acetate, 293.15 K): 0.0157
solubility (mole fraction) (in ethyl acetate, 298.15 K): 0.0172
solubility (mole fraction) (in ethyl acetate, 303.15 K): 0.0195
solubility (mole fraction) (in ethyl acetate, 308.15 K): 0.0211
solubility (mole fraction) (in ethyl acetate, 313.15 K): 0.0239
solubility (mole fraction) (in ethyl acetate, 318.15 K): 0.0265
solubility (mole fraction) (in ethyl acetate, 323.15 K): 0.0299
solubility (mole fraction) (in ethyl acetate, 328.15 K): 0.0325
solubility (mole fraction) (in ethyl acetate, 333.15 K): 0.0357
solubility (mole fraction) (in isopropanol, 278.15 K): 0.0691
solubility (mole fraction) (in isopropanol, 283.15 K): 0.0745
solubility (mole fraction) (in isopropanol, 288.15 K): 0.0775
solubility (mole fraction) (in isopropanol, 293.15 K): 0.0859
solubility (mole fraction) (in isopropanol, 298.15 K): 0.0916
solubility (mole fraction) (in isopropanol, 303.15 K): 0.0969
solubility (mole fraction) (in isopropanol, 308.15 K): 0.103
solubility (mole fraction) (in isopropanol, 313.15 K): 0.11
solubility (mole fraction) (in isopropanol, 318.15 K): 0.12
solubility (mole fraction) (in isopropanol, 323.15 K): 0.123
solubility (mole fraction) (in isopropanol, 328.15 K): 0.131
solubility (mole fraction) (in isopropanol, 333.15 K): 0.14
solubility (mole fraction) (in methanol, 278.15 K): 0.0466
solubility (mole fraction) (in methanol, 283.15 K): 0.051
solubility (mole fraction) (in methanol, 288.15 K): 0.0559
solubility (mole fraction) (in methanol, 293.15 K): 0.0637
solubility (mole fraction) (in methanol, 298.15 K): 0.0705
solubility (mole fraction) (in methanol, 303.15 K): 0.0743
solubility (mole fraction) (in methanol, 308.15 K): 0.0805
solubility (mole fraction) (in methanol, 313.15 K): 0.0882
solubility (mole fraction) (in methanol, 318.15 K): 0.0933
solubility (mole fraction) (in methanol, 323.15 K): 0.101
solubility (mole fraction) (in methanol, 328.15 K): 0.11
solubility (mole fraction) (in methanol, 333.15 K): 0.121
solubility (mole fraction) (in n-butanol, 278.15 K): 0.0588
solubility (mole fraction) (in n-butanol, 283.15 K): 0.0613
solubility (mole fraction) (in n-butanol, 288.15 K): 0.0674
solubility (mole fraction) (in n-butanol, 293.15 K): 0.0723
solubility (mole fraction) (in n-butanol, 298.15 K): 0.0762
solubility (mole fraction) (in n-butanol, 303.15 K): 0.0798
solubility (mole fraction) (in n-butanol, 308.15 K): 0.0836
solubility (mole fraction) (in n-butanol, 313.15 K): 0.0872
solubility (mole fraction) (in n-butanol, 318.15 K): 0.0931
solubility (mole fraction) (in n-butanol, 323.15 K): 0.1
solubility (mole fraction) (in n-butanol, 328.15 K): 0.109
solubility (mole fraction) (in n-butanol, 333.15 K): 0.119
solubility (mole fraction) (in water, 278.15 K): 9e-06
solubility (mole fraction) (in water, 283.15 K): 1.2e-05
solubility (mole fraction) (in water, 288.15 K): 1.7e-05
solubility (mole fraction) (in water, 293.15 K): 2.1e-05
solubility (mole fraction) (in water, 298.15 K): 2.8e-05
solubility (mole fraction) (in water, 303.15 K): 3.4e-05
solubility (mole fraction) (in water, 308.15 K): 4.4e-05
solubility (mole fraction) (in water, 313.15 K): 5.3e-05
solubility (mole fraction) (in water, 318.15 K): 6.1e-05
solubility (mole fraction) (in water, 323.15 K): 7.3e-05
solubility (mole fraction) (in water, 328.15 K): 9.2e-05
solubility (mole fraction) (in water, 333.15 K): 0.00012
